Measured values as given in paper PMC11349956 (EJNMMI Radiopharmacy and Chemistry, 2024).
Where a name gives a salt, the structure may show the parent alone.

Key:
[1] = rat striatum, 18F-LBT-999, ref Sérrière et al. [2014]; cited from earlier work
DAT = DAT (Rattus norvegicus, UniProt P23977); type: in vivo; details: GBR12909 12.5 mg/kg i.p. 15 min before LBT-999 0.02 mg/kg i.v.
DAT, sequence (P23977 whole entry): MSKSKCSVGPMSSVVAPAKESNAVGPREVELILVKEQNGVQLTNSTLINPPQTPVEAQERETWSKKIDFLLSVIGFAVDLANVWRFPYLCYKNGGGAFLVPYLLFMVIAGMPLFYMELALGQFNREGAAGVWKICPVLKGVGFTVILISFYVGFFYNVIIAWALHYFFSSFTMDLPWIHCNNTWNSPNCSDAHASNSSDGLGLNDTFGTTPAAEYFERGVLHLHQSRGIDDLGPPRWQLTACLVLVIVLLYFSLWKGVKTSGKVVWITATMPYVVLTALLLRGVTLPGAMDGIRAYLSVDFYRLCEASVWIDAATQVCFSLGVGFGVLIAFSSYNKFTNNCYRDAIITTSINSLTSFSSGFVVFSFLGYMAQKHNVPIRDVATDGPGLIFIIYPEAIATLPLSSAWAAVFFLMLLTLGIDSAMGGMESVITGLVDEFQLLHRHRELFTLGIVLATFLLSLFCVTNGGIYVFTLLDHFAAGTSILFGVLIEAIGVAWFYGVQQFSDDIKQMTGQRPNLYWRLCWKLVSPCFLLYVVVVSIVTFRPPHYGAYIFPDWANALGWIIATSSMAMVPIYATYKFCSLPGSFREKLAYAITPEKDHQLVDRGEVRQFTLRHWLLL

Structure (SMILES)	average percentage of injected doses in the striatum derived from PET studies [1] [%]	effect on brain binding of LBT-999 (DAT)
COC(=O)[C@H]1[C@@H](c2ccc(C)cc2)C[C@@H]2CC[C@H]1N2C/C=C/C[18F] [18F-LBT-999]	2.17 ± 0.42	
Fc1ccc(C(OCCN2CCN(CCCc3ccccc3)CC2)c2ccc(F)cc2)cc1 [GBR 12909, 1-(2-bis(4-fluorophenyl)methoxy)ethyl)-4-(3-phenylpropyl)piperazine hydrochloride]		prevented any binding of LBT-999
